Data published in patent publication US7687481B2, “Cannabinoid receptor antagonists/inverse agonists useful for treating obesity” (Jenrin Discovery, Inc., priority 2006, dated 2010).
pIC50: −log10 of the molar value.

System: not given
Test: not given
Conditions: usually not maintained; cited from earlier work

In the case of CCCCCCCCCCC[C@@H](C[C@@H]1OC(=O)[C@H]1CCCCCC)OC(=O)[C@H](CC(C)C)NC=O [orlistat], the “initial weight loss compared to placebo” value is given as “approximately 5%”.
For CC(C)CC(N(C)C)C1(c2ccc(Cl)cc2)CCC1 (stereo not shown) [sibutramine], the “initial weight loss compared to placebo” value is listed as “approximately 5%”.

Biological target: T1, human cannabinoid CB1 receptor (Homo sapiens, UniProt P21554)
T1 construct: expressed in transfected cells; host or cells: Chinese hamster ovary (CHO) cells, stably transfected; membrane preparation
T1 sequence (P21554 whole entry): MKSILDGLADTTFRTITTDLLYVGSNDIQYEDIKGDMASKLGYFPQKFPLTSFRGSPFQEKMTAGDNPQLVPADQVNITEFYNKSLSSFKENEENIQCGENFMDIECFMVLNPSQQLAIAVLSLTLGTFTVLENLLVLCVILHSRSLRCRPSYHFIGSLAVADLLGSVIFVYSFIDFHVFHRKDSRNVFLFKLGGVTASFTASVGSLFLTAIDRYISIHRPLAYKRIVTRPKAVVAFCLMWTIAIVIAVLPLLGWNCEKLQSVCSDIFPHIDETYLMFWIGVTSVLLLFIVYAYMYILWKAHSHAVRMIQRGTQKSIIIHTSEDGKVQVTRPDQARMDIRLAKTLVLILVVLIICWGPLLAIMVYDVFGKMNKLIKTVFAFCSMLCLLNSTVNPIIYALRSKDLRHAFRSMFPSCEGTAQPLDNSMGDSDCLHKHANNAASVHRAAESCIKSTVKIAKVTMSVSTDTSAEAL
Test: CB1 receptor affinity, [3H]CP-55,940 radioligand binding to CHO cell membranes
Conditions: not given
Method: CB1 receptor affinities can be determined using membrane preparations of Chinese hamster ovary (CHO) cells in which the human cannabinoid CB1 receptor is stably transfected (Biochem J. 1991, 279, 129-134) in conjunction with [3H]CP-55,940 as radioligand. After incubation of a freshly prepared cell membrane preparation with the [3H]-radioligand, with or without addition of test compound, separation of bound and free ligand is performed by filtration over glass fiber filters. Radioactivity on the filter is measured by liquid scintillation counting. The IC50 values can be determined from at least three independent measurements.
Tables A-E below describe selected examples of the present invention that have been synthesized and tested. The activities of these compounds are as follows: • +=an IC50 of ≦10 μM; • ++=IC50 of ≦1 μM; and, • +++=an IC50 ≦100 nM.

CCOC(=O)C(CC(C)C)NC(=O)c1nn(-c2ccc(Cl)cc2Cl)c(-c2ccc(Cl)cc2)c1C (stereo not shown) [Example A-8] and CCOC(=O)C(NC(=O)c1nn(-c2ccc(Cl)cc2Cl)c(-c2ccc(Cl)cc2)c1C)C(C)(C)C (stereo not shown) [Example A-11] cannot be ordered by pIC50: greater than 7.00 for the first, greater than 7.00 for the second.

Work on Cc1c(C(=O)NC(C(N)=O)C(C)(C)C)nn(-c2ccc(Cl)cc2Cl)c1-c1ccc(Cl)cc1 (stereo not shown) [Example B-10] yielded a pIC50 greater than 7.00.

Same assay, conditions: Table A; read-out: CB1 Receptor Activity

CCOC(=O)CNC(=O)c1nn(-c2ccc(Cl)cc2Cl)c(-c2ccc(Cl)cc2)c1C [Example A-1] and CCOC(=O)CCNC(=O)c1nn(-c2ccc(Cl)cc2Cl)c(-c2ccc(Cl)cc2)c1C [Example A-3] cannot be ordered by pIC50: greater than 5.00 for the first, greater than 5.00 for the second.

CCOC(=O)C(Cc1ccccc1)NC(=O)c1nn(-c2ccc(Cl)cc2Cl)c(-c2ccc(Cl)cc2)c1C (stereo not shown) [Example A-2] and Cc1c(C(=O)NC(Cc2ccccc2)C(=O)O)nn(-c2ccc(Cl)cc2Cl)c1-c1ccc(Cl)cc1 (stereo not shown) [Example A-4] cannot be ordered by pIC50: greater than 6.00 for the first, greater than 5.00 for the second.

CCOC(=O)CCCNC(=O)c1nn(-c2ccc(Cl)cc2Cl)c(-c2ccc(Cl)cc2)c1C [Example A-5] and CCOC(=O)CC(C)NC(=O)c1nn(-c2ccc(Cl)cc2Cl)c(-c2ccc(Cl)cc2)c1C (stereo not shown) [Example A-6] cannot be ordered by pIC50: greater than 5.00 for the first, greater than 6.00 for the second.

CCOC(=O)C(C)NC(=O)c1nn(-c2ccc(Cl)cc2Cl)c(-c2ccc(Cl)cc2)c1C (stereo not shown) [Example A-7] and CCOC(=O)C(NC(=O)c1nn(-c2ccc(Cl)cc2Cl)c(-c2ccc(Cl)cc2)c1C)C(C)CC (stereo not shown) [Example A-10] cannot be ordered by pIC50: greater than 6.00 for the first, greater than 7.00 for the second.

Cc1c(C(=O)NC(CC(C)C)C(=O)O)nn(-c2ccc(Cl)cc2Cl)c1-c1ccc(Cl)cc1 (stereo not shown) [Example A-9] and Cc1c(C(=O)NC(C(=O)O)C(C)(C)C)nn(-c2ccc(Cl)cc2Cl)c1-c1ccc(Cl)cc1 (stereo not shown) [Example A-12] cannot be ordered by pIC50: greater than 6.00 for the first, greater than 7.00 for the second.

Same assay, conditions: Table B; read-out: CB1 Receptor Activity

Cc1c(C(=O)NCCC(N)=O)nn(-c2ccc(Cl)cc2Cl)c1-c1ccc(Cl)cc1 [Example B-1] and Cc1c(C(=O)NC(C)CC(N)=O)nn(-c2ccc(Cl)cc2Cl)c1-c1ccc(Cl)cc1 (stereo not shown) [Example B-2] cannot be ordered by pIC50: greater than 5.00 for the first, greater than 5.00 for the second.

Cc1c(C(=O)NC(CC(C)C)C(N)=O)nn(-c2ccc(Cl)cc2Cl)c1-c1ccc(Cl)cc1 (stereo not shown) [Example B-3] and CCC(C)C(NC(=O)c1nn(-c2ccc(Cl)cc2Cl)c(-c2ccc(Cl)cc2)c1C)C(N)=O (stereo not shown) [Example B-4] cannot be ordered by pIC50: greater than 6.00 for the first, greater than 7.00 for the second.

Cc1c(C(=O)NC(Cc2ccccc2)C(N)=O)nn(-c2ccc(Cl)cc2Cl)c1-c1ccc(Cl)cc1 (stereo not shown) [Example B-5] and Cc1c(C(=O)NCc2cccc(C(N)=O)c2)nn(-c2ccc(Cl)cc2Cl)c1-c1ccc(Cl)cc1 [Example B-6] cannot be ordered by pIC50: greater than 7.00 for the first, greater than 6.00 for the second.

Cc1c(C(=O)NCc2ccc(C(N)=O)cc2)nn(-c2ccc(Cl)cc2Cl)c1-c1ccc(Cl)cc1 [Example B-7] and Cc1c(C(=O)NCc2ccc(C(=N)N)cc2)nn(-c2ccc(Cl)cc2Cl)c1-c1ccc(Cl)cc1 [Example B-9] cannot be ordered by pIC50: greater than 6.00 for the first, greater than 5.00 for the second.

Work on Cc1c(C(=O)NCc2cccc(C(=N)N)c2)nn(-c2ccc(Cl)cc2Cl)c1-c1ccc(Cl)cc1 [Example B-8] yielded a pIC50 greater than 6.00.

Same assay, conditions: Table C; read-out: CB1 Receptor Activity

CCOC(=O)C1CCCN(NC(=O)c2nn(-c3ccc(Cl)cc3Cl)c(-c3ccc(Cl)cc3)c2C)C1 (stereo not shown) [Example C-1] and Cc1c(C(=O)NN2CCCC(C(N)=O)C2)nn(-c2ccc(Cl)cc2Cl)c1-c1ccc(Cl)cc1 (stereo not shown) [Example C-3] cannot be ordered by pIC50: greater than 6.00 for the first, greater than 7.00 for the second.

In the case of CCOC(=O)C1CCN(NC(=O)c2nn(-c3ccc(Cl)cc3Cl)c(-c3ccc(Cl)cc3)c2C)CC1 [Example C-2], the pIC50 was greater than 6.00.

Same assay, conditions: Table E; read-out: CB1 Receptor Activity

CCOC(=O)C1CCC(NC(=O)c2nn(-c3ccc(Cl)cc3Cl)c(-c3ccc(Cl)cc3)c2C)CC1 (stereo not shown) [Example E-1] and Cc1c(C(=O)NC2CCC(C(N)=O)CC2)nn(-c2ccc(Cl)cc2Cl)c1-c1ccc(Cl)cc1 (stereo not shown) [Example E-2] cannot be ordered by pIC50: greater than 5.00 for the first, greater than 5.00 for the second.

System: not given
Test: not given
Conditions: dose-related, most pronounced at the most efficacious weight-reducing dose; cited from earlier work

In the case of Cc1c(C(=O)NN2CCCCC2)nn(-c2ccc(Cl)cc2Cl)c1-c1ccc(Cl)cc1 [rimonabant], the side effects is given as “psychiatric and nervous system side effects”.

Same assay, conditions: obese patients; cited from earlier work

In the case of Cc1c(C(=O)NN2CCCCC2)nn(-c2ccc(Cl)cc2Cl)c1-c1ccc(Cl)cc1 [rimonabant], the weight loss is given as “clinically meaningful weight loss”.
